These results are taken from patent US20160272691A1, “COMPOSITIONS AND METHODS FOR TREATING CONDITIONS ASSOCIATED WITH y-[sequence]” (NDSU RESEARCH FOUNDATION, priority 2013, published 2016).

No end group written: not given here.

The target in assay [1] is T1, γHV68 M11 (Murid herpesvirus 4, UniProt P89884).
T1 construct: γHV68 M11 residues 1-136 was expressed and purified; made in house
The assay is described as follows: biochemical. It counts as binding, murine γHV68. The conditions noted are these: for ΔG, M11 / ΔH, M11 / ΔS, M11: ITC, 25° C., Table 1. An excerpt: (§1) Various Bcl-2 homologs lacking the C-terminal transmembrane helix were cloned and expressed to enable purification of soluble constructs identical to those used for previous structural studies. γHV68 M11 residues 1-136 was expressed and purified. The double mutant variant of Bcl-XL (N52D, N66D) was created by two rounds of site-directed mutagenesis using the QuikChange II Site-Directed Mutagenesis Kit (Agilent Technologies), then cloned, along with a C-terminal His6-tag for purification, into the NdeI and NotI restriction sites of pET 29b. The His6-tagged Bcl-XL (residues 1-208, N52D, N66D) were expressed in E. coli strain BL21(DE3)pLysS, and soluble protein in the cell lysate was purified to homogeneity by Immobilized Metal Affinity Chromatography using two 5 mL His-Select columns (GE Healthcare) linked in tandem, followed by Ion-Exchange Chromatography using a Mono Q HR 10/10 column (GE Healthcare) and Size-Exclusion Chromatography using a 16/60 preparative Superdex 75 column (GE Healthcare).
(§2) Various Beclin 1 BH3D-derived peptides, were chemically synthesized, and HPLC purified to >95% purity, with peptide purity confirmed by electrospray mass spectrometry (EZBioLabs/RSSynthesis/Protein Chemistry Technology Core at the University of Texas Southwestern Medical Center, Dallas).
(§3) Isothermal titration calorimetry was performed using a Nano ITC Low Volume (TA Instruments). For all ITC experiments, samples were loaded into separate dialysis cassettes, and dialyzed into ITC buffer. The ITC buffer for all experiments involving γHV68 M11 was 50 mM HEPES, pH 7.5, 250 mM NaCl and 2 mM β-mercaptoethanol and for human Bcl-XL was 25 mM HEPES, pH 7.5, 100 mM NaCl and 2 mM β-mercaptoethanol. ITC was performed at 25° C. with 25 injections of 2 μL each. Data were analyzed using NanoAnalyze Software (TA Instruments), with an independent model.

The target in assay [2] is T2, human Bcl-XL (Homo sapiens, UniProt Q07817, N52D/N66D).
T2 construct: The His6-tagged Bcl-XL (residues 1-208, N52D, N66D) were expressed in E. coli; His6 (C); made in house; host or cells: E. coli BL21(DE3)pLysS
Kind of assay: Isothermal titration calorimetry, binding of Beclin 1 BH3D-derived peptides to Bcl-XL. The note with it: ITC.
From the text: as §1, §2, §3

Assay [3] deals with T3, M11 (Murid herpesvirus 4, UniProt P89884).
T3 construct: expressed in transfected cells; host or cells: MCF7 human breast carcinoma cells
T3 sequence (P89884 whole entry, looked up): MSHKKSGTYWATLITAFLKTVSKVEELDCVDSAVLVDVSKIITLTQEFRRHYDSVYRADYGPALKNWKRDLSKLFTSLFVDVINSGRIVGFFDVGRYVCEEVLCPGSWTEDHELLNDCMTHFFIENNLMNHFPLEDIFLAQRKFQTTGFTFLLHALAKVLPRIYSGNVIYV
Kind of assay: Autophagy assay (GFP-LC3 puncta), M11-mediated down-regulation of autophagy in MCF7 cells. It is filed as cell-based, murine γHV68. The note with it: cells that transiently express M11 in addition to Beclin 1; p=0.0010 treated versus untreated. How it is done:
(§4) Quantification of the fluorescent autophagosomes in MCF7 cells co-transfected with GFP-LC3 (1.6 μg), Beclin 1 (1.2 μg), and either Bcl-XL (1.2 μg) or M11(1.2 μg) expression plasmids (4 μg plasmids total) was done using an inverted AxioObserver (Zeiss). Cells were cultured in DMEM with 10% fetal calf serum (growth medium) in 8-well slides (Millipore) and transfected at 80% confluence with Lipofectamine (Invitrogen). After transfection, cells were either starved overnight in Earle's balanced salt solution (EBSS, starvation medium), or grown in nutrient-rich media with the addition of 2×EAA (essential amino acids) and 2×NEAA (nonessential amino acids) (nutrient rich medium) in the absence or presence of 1 mM peptides if indicated. The number of GFP-LC3 puncta per GFP-LC3 positive cell was assessed by counting a minimum of 50 cells via Image ProPlus for duplicate samples per condition in three independent experiments. The significance of alterations in autophagy levels were determined by a two-tailed, heteroscedastic student's t-test, wherein p≦0.05 is considered significant.
(§5) Lastly, whether the DM peptide would specifically prevent M11-mediated down-regulation, but not Bcl-XL-mediated down-regulation of Beclin 1-dependent autophagy in cells was investigated. […]

Assay [4] concerns MCF7 cells. The assay is described as follows: Autophagy assay (GFP-LC3 puncta) in MCF7 cells without Bcl-XL or M11. It is filed as cell-based, human. The procedure:
as §4, §5

The target of assay [5] is T4, Bcl-XL (Homo sapiens, UniProt Q07817).
T4 construct: expressed in transfected cells; host or cells: MCF7 human breast carcinoma cells
The assay is described as follows: Autophagy assay (GFP-LC3 puncta), Bcl-XL-mediated down-regulation of autophagy in MCF7 cells. It counts as cell-based. The note with it: cells that transiently express Bcl-XL in addition to Beclin 1; p=0.92294 treated versus untreated. The procedure: as §4, §5

T2 sequence (Q07817 1-208 N52D/N66D): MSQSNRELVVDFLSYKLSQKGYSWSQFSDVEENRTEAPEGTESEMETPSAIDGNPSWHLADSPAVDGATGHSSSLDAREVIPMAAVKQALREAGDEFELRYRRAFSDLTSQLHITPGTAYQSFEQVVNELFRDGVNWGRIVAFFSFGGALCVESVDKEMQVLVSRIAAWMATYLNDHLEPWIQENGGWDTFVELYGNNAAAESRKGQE
T4 sequence (Q07817 whole entry): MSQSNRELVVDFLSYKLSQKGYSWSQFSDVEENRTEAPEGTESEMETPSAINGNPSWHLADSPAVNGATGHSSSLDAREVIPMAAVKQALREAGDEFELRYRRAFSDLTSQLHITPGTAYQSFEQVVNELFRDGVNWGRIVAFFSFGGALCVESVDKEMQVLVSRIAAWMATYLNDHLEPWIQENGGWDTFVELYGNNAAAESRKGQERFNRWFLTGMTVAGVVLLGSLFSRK

Take “GSGTMENLSRRLKVTEALFDIMSGQT [G120E + D121A]”: in assay [1], the equilibrium dissociation constant (Kd) was found to be 6.43 ± 0.15 µM; the “ΔG, M11” value is -7.079 ± 0.014 kcal/mol; the “ΔH, M11” value was -14.9 ± 0.65 kcal/mol; the “ΔS, M11” value is reported as −109.81 ± 9.28 J/K · mol. The “fold better binding to M11 compared to the G120E peptide” value in assay [1] (relative to G120E peptide) is approximately 5.7 fold. In addition, the “fold weaker binding to M11 compared to WT” value in assay [1] (relative to WT BH3D) was approximately 4.7 fold. Besides, in assay [2], the “binding to Bcl-XL (in words)” value is recorded as “does not bind”.

Take “GSGTMENLSRRLKVTGDLFDIMSGQT [WT, reference compound]”: in assay [1], the dissociation constant (Kd) stood at 1.38 ± 0.41 µM; the “ΔG, M11” value was -8.009 ± 0.17 kcal/mol; the “ΔH, M11” value is -16.96 ± 1.53 kcal/mol; the “ΔS, M11” value is reported as −125.72 ± 22.53 J/K · mol. In assay [1] (M11 versus Bcl-XL), the “TΔSapp for binding to M11, fold lower than for binding to Bcl-XL” value is on record as approximately 4 fold and the “ΔHapp for binding to M11, fold higher than for binding to Bcl-XL” value is approximately 2 fold. Also, in assay [2] (25° C., Table 1), the “ΔG, Bcl-XL” value was -7.787 ± 0.055 kcal/mol; the “ΔH, Bcl-XL” value was -10.41 ± 0.344 kcal/mol; the “ΔS, Bcl-XL” value is −36.89 ± 4.53 J/K · mol. The substance also showed a Kd in assay [2] (25° C., Table 1, cell "No" wraps to "Binding" in the next grid row (= No Binding)) of 1.95 ± 0.19 µM.

Regarding “TAT-DM peptide: HIV-1 TAT protein transduction domain attached via a diglycine linker to the N-terminus of the DM peptide (YGRKKRRQRRRGGGSGTMENLSRRLKVTEALFDIMSGQT)”, the “autophagy levels compared to untreated cells” value in assay [3] is recorded as “markedly increases autophagy levels”. Further, the levels of autophagy result in assay [4] (MCF7 cells, nutrient-rich or starvation conditions, peptide treatment) was “did not increase levels of autophagy”. For the same substance, the “autophagy levels relative to untreated cells” value in assay [4] (cells that express Beclin 1, but not Bcl-XL or M11, p=0.03383 treated versus untreated) is reported as “only a slight elevation in autophagy levels”. The “effect on autophagy compared to untreated cells” value in assay [5] is recorded as “insignificant effect”.
